Patent publication US10377741B2, “Substituted heteroaryl aldehyde compounds and methods for their use in increasing tissue oxygenation” (Global Blood Therapeutics, Inc., priority 2011, dated 2019)

Legend:
[1] = test system: whole blood; test: Whole blood assay: oxygen equilibrium curves of whole blood; format: cell-based, human (homozygous sickle cell patients); conditions: compound at 1000 μM; hematocrit 20%, 1 hour at 37° C.
Method: Oxygen Equilibrium Curves (OEC) of whole blood before and after treatment with different concentrations of substituted benzaldehyde compounds were performed as follows using a HEMOX analyzer (TCS Scientific, New Hope, Pa.). Blood samples from homozygous sickle cell patients were obtained though the Hemoglobinopathy Center at Children's Hospital Oakland Research Institute (CHORI) with Institutional Review Board approval. The hematocrit was adjusted to 20% using autologous plasma and the blood samples were incubated for 1 hour at 37° C. in absence or presence of compounds. 100 μl of these samples were added to 5 mL of Hemox buffer (30 mM TES, 130 mM NaCl, 5 mM KCl, pH=7.4) at 37° C. and then transferred to the Hemox sample chamber. The samples were saturated with oxygen by flushing with compressed air for 10 minutes. The samples were then flushed with pure nitrogen and the respective absorbances of oxy- and deoxy-Hb are recorded as a function of the solution pO2. The oxygen equilibrium data were then fitted to the Hill Model to obtain values for p50. The deoxygenation curves for both whole blood alone (control) and whole blood in the presence of the compound were collected with the TCS software.
Table 5 below lists the delta p50% values where + indicates a delta p50% of between 0 and 29, ++ indicates a delta p50% of between 30 and 50, and +++ indicates a delta p50% of 50 or greater. Unless noted otherwise, the compounds in Table 2 were tested at 1000 μM.

[2] = biological target: T1, purified Hemoglobin S (HbS) (Homo sapiens, UniProt P68871+P69905, E7V); test: Modulation of hemoglobin oxygen affinity: oxygen equilibrium curves (HEMOX) in purified HbS; format: biochemical, human (homozygous sickle cell patients); conditions: compound at 30 μM; 25 μM purified HbS, 45 min at 37° C.
T1 construct: HbS was purified by a modified procedure; from tissue; host or cells: blood of homozygous sickle cell patients (CHORI); for the polymerization assay purified by the CRO VIRUSYS
Procedure, shortened: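 HbS from homozygous sickle cell patient blood, 25 μM in HEMOX buffer pH 7.4, incubated 45 min at 37° C with compound (30 μM unless noted). Air-saturated then deoxygenated with N2; p50 from Hill fit; delta p50% = (control p50 − treated p50)/control p50 × 100.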

[3] = biological target: T2, HbS/A (Homo sapiens, UniProt P68871+P69905, E7V); test: R/T assay (relaxed-to-tense transition under deoxygenated conditions); format: biochemical, human (homozygous sickle cell patients); conditions: 3 μM HbS/A, % R remaining vs no treatment
T2 construct: A mixture of HbS/A was purified from blood; from tissue; host or cells: blood of homozygous sickle cell patients (CHORI)
Method: A relaxed-to-tense transition assay (“R/T assay”) was used to determine the ability of substituted benzaldehyde compounds to maintain the high-oxygen affinity relaxed (R) state of hemoglobin under deoxygenated conditions. This ability can be expressed as a “delta R” value (i.e., the change in the time-period of the R state after hemoglobin is treated with a compound, as compared to the period without treatment with the compound). Delta R is the % R to remaining after the compounds treatment compared with no treatment (e.g. if R % without treatment is 8% while with treatment with a target compound is 48% R at 30 μM, then % R is 40% for that compound.
A mixture of HbS/A was purified from blood obtained from homozygous sickle cell patients though the Hemoglobinopathy Center at Children's Hospital Oakland Research Institute (CHORI) with Institutional Review Board approval. HbS/A (at a final concentration of 3 μM) was incubated for 1 hr at 37° C. in presence or absence of compounds in […] potassium phosphate buffer, pH=7.4 and 30 μM 2, 3 diphosphoglycerate (DPG) in 96 well plates in a final volume of 160 μl. Compounds were added at different concentrations (3 μM to 100 μM final concentrations). Plates were covered with a Mylar film. After incubation was completed the Mylar cover was removed and the plates were placed in a Spectrostar Nano plate reader previously heated at 37° C. Five minutes later, N2 (flow rate=20 L/min) was flowed through the spectrophotometer. Spectroscopic measurements (300 nm to 700 nm) were taken every 5 min for 2 hours. Data analysis was performed by using linear regression from the data retrieved for all wavelengths.
Table 4 below lists the delta R values where + indicates a delta R of between 0 and 30, ++ indicates a delta R of between 30 and 50, and +++ indicates a delta R of 50 or greater. Unless noted otherwise, the compounds in Table 2 were tested at 30 μM.

[4] = biological target: T3, purified HBS (Homo sapiens, UniProt P68871+P69905, E7V); test: Polymerization assay (delay time of HbS polymerization); format: biochemical, human (homozygous sickle cell patients); conditions: percent delay (% DT) vs HBS alone; 50 μM purified HBS, 1.8 M potassium phosphate pH 7.4
T3 construct: HbS was purified by a modified procedure; from tissue; host or cells: blood of homozygous sickle cell patients (CHORI); for the polymerization assay purified by the CRO VIRUSYS
Method: Polymerization assays are carried out in vitro using purified HBS exchanged into 1.8 M potassium phosphate buffer at pH 7.4. Using a slightly modified protocol (Antonini and Brunori, 1971), HbS is purified by the CRO VIRUSYS, from blood obtained from homozygous sickle cell patients through the Hemoglobinopathy Center at Children's Hospital Oakland Research Institute (CHORI) with Institutional Review Board approval. Compounds are prepared in 100% DMSO and a desired amount is added to 50 μM of purified HBS at a final DMSO concentration of 0.3%. Final potassium phosphate concentration is adjusted to 1.8 M using a combination of 2.5 M potassium phosphate stock solution and water at pH 7.4. The reaction mixture is incubated for an hour at 37° C. and then transferred into a 24-well plate for deoxygenation in a glove box containing 99.5% nitrogen and 0.5% oxygen. The 24-well plate is not covered and incubated at 4° C. on a plate cooler inside the glove box for one and a half hours. Fifty μL of the reaction mixture is transferred into a 96-well plate and the absorbance at 700 nm is measured every minute for one hour at 37° C. in a plate reader located inside the glove box. A plot of the absorbance against time is fitted using a Boltzman sigmoidal fit and the delay time (from zero to time at half Vmax) is measured. To compare and rank compounds, delay times are expressed as percent delay (% DT), which is defined as the difference in delay times for HBS/compound and HBS alone multiplied by 100 and divided by the delay time for HBS alone.
Compounds listed below have been tested in the polymerization assay. Activity ranges are defined by the number of dagger (†) symbols indicated. † denotes activity ≥40% but ≤80%; †† denotes activity >80% but ≤120%; ††† denotes activity >120% but ≤140%; †††† denotes activity >160%.

| SMILES | delta p50% Values for Whole Blood Assay [1] | delta p50% [2] | delta R ([3]; compound at 30 μM) | % delta Delay [4] | delta R ([3]; compound at 9 μM) |
| --- | --- | --- | --- | --- | --- |
| COc1cc(C=O)c(OCc2cccn3ccnc23)cn1 [Compound 5] | + (a delta p50% of between 0 and 29) | ++ (a delta p50% of between 30 and 50) | ++ (a delta R of between 30 and 50) | † (activity ≥40% but ≤80%) |  |
| COc1cc(C=O)c(OCc2cccnc2-c2ccn(C)n2)cn1 [Compound 130, 2-methoxy-5-((2-(1-methyl-1H-pyrazol-3-yl)pyridin-3-yl)methoxy)isonicotinaldehyde] | ++ (a delta p50% of between 30 and 50) | ++ (a delta p50% of between 30 and 50) |  | † (activity ≥40% but ≤80%) | + (a delta R of between 0 and 30) |
| CCn1nccc1-c1ncccc1COc1cnc(OC)cc1C=O [Compound 149, 5-((2-(1-ethyl-1H-pyrazol-5-yl)pyridin-3-yl)methoxy)-2-methoxyisonicotinaldehyde] | +++ (a delta p50% of 50 or greater) | +++ (a delta p50% of 50 or greater) |  | † (activity ≥40% but ≤80%) | + (a delta R of between 0 and 30) |
| COc1cc(C=O)c(OCc2cccnc2-c2ccnn2C(C)C)cn1 [Compound 150] | +++ (a delta p50% of 50 or greater) | +++ (a delta p50% of 50 or greater) | +++ (a delta R of 50 or greater) | ††† (activity >120% but ≤140%) |  |
| COc1cc(C=O)c(OCc2cccnc2C(C)(C)O)cn1 [Compound 183, 5-((2-(2-hydroxypropan-2-yl)pyridin-3-yl)methoxy)-2-methoxyisonicotinaldehyde] | +++ (a delta p50% of 50 or greater) | +++ (a delta p50% of 50 or greater) | ++ (a delta R of between 30 and 50) |  |  |
| COCCOc1cc(C=O)c(OCc2cccnc2-c2ccnn2C)cn1 [Compound 184, 2-(2-methoxyethoxy)-5-((2-(1-methyl-1H-pyrazol-5-yl)pyridin-3-yl)methoxy)isonicotinaldehyde] | +++ (a delta p50% of 50 or greater) | ++ (a delta p50% of between 30 and 50) | ++ (a delta R of between 30 and 50) |  |  |
| COc1cncc(OCc2cccnc2-c2ccnn2C(C)C)c1C=O [Compound 188, 3-((2-(1-isopropyl-1H-pyrazol-5-yl)pyridin-3-yl)methoxy)-5-methoxyisonicotinaldehyde] | +++ (a delta p50% of 50 or greater) | +++ (a delta p50% of 50 or greater) |  | ††† (activity >120% but ≤140%) |  |
| COc1cc(C=O)c(OCc2cccnc2-c2ncnn2C(C)C)cn1 [Compound 189, 5-((2-(2-isopropyl-2H-1,2,4-triazol-3-yl)pyridin-3-yl)methoxy)-2-methoxyisonicotinaldehyde] | +++ (a delta p50% of 50 or greater) | ++ (a delta p50% of between 30 and 50) |  | ††† (activity >120% but ≤140%) |  |
| COc1cc(C=O)c(OCc2cccnc2-c2c(C)cnn2C(C)C)cn1 [Compound 190, 5-((2-(1-isopropyl-4-methyl-1H-pyrazol-5-yl)pyridin-3-yl)methoxy)-2-methoxyisonicotinaldehyde] | +++ (a delta p50% of 50 or greater) | +++ (a delta p50% of 50 or greater) |  | ††† (activity >120% but ≤140%) |  |
| COc1cc(C=O)c(OCc2cccnc2-c2ccnn2CCO)cn1 [Compound 191, 5-((2-(1-(2-hydroxyethyl)-1H-pyrazol-5-yl)pyridin-3-yl)methoxy)-2-methoxyisonicotinaldehyde] | +++ (a delta p50% of 50 or greater) | +++ (a delta p50% of 50 or greater) |  |  | + (a delta R of between 0 and 30) |
| Cc1cn[nH]c1-c1ncccc1COc1c[nH]c(=O)cc1C=O [Compound 194, 5-((2-(4-methyl-1H-pyrazol-5-yl)pyridin-3-yl)methoxy)-2-oxo-1,2-dihydropyridine-4-carbaldehyde] | + (a delta p50% of between 0 and 29) | ++ (a delta p50% of between 30 and 50) |  |  | + (a delta R of between 0 and 30) |
| COc1cc(C=O)c(OCc2cccnc2-c2ccnn2C2CCCCC2)cn1 [Compound 196, 5-((2-(1-cyclohexyl-1H-pyrazol-5-yl)pyridin-3-yl)methoxy)-2-methoxyisonicotinaldehyde] | ++ (a delta p50% of between 30 and 50) | +++ (a delta p50% of 50 or greater) | ++ (a delta R of between 30 and 50) |  |  |
| COC(=O)CCn1nccc1-c1ncccc1COc1cnc(OC)cc1C=O [Compound 200, methyl 3-(5-(3-(((4-formyl-6-methoxypyridin-3-yl)oxy)methyl)pyridin-2-yl)-1H-pyrazol-1-yl)propanoate] | +++ (a delta p50% of 50 or greater) | ++ (a delta p50% of between 30 and 50) |  |  | + (a delta R of between 0 and 30) |
| COc1cc(C=O)c(OCc2cccnc2-c2ccn(CCC(=O)O)n2)cn1 [Compound 201, 3-(3-(3-((4-formyl-6-methoxypyridin-3-yloxy)methyl)pyridin-2-yl)-1H-pyrazol-1-yl)propanoic acid] | + (a delta p50% of between 0 and 29) | ++ (a delta p50% of between 30 and 50) |  |  | + (a delta R of between 0 and 30) |
| COc1cc(C=O)c(OCc2cccc(C(=O)O)c2)cn1 [Compound 203, 3-(((4-formyl-6-methoxypyridin-3-yl)oxy)methyl)benzoic acid] |  | +++ (a delta p50% of 50 or greater) |  | †† (activity >80% but ≤120%) | + (a delta R of between 0 and 30) |
